Reference: patent publication US20130158035A1, “[…] COMPOUNDS” (Brigham Young University, priority 2010, published 2013)

tested on: MDCK cells; assay: HGF-induced epithelial-mesenchymal transition / migration of MDCK cells on transwell filters (crystal violet densitometry); assay type: cell-based; conditions: Canis lupus familiaris, MDCK, 24 h, Table 3, 10 μM compound, then HGF, percentage like untreated controls (unstimulated cells = maximal effect, HGF only = nil)
Protocol: MDCK cells were seeded at confluency into the wells of a transwell filter in DMEM with 10% fetal bovine serum. Cells were cultured for 24 hours. Test compounds, dissolved in DMSO, were added to each test well to a 10 μM final concentration, and then hepatocyte growth factor (HGF) was then added. The MDCK cells were cultured for 24 hours. Concurrently, controls treated with and without HGF and with no test compounds were also prepared.
After post-HGF addition culturing, transwell filters were prepared by repeated washing using ice cold PBS. The cells were then fixed with paraformaldehyde (3.7%) on ice for 15 minutes to the filters. After fixation, the transwell filters were washed repeatedly with PBS followed by staining with crystal violet for 15 minutes. The transwell filters were washed again with distilled water.
The upper surface of the transwell filters were swabbed using a cotton-tipped probe. The filters were photographed using a gel documentation system. Densitometry measurements were made on the test samples and compared with control samples.

Row | Structure (SMILES) | inhibition at 10 µM
1 | COc1cc(CNc2ccc(N3CCOCC3)cc2)cc(Br)c1OC [Compound A-23] | 31.9%
2 | COc1ccc(/C=N/c2ccccc2C(N)=O)cc1 [Compound A-15] | < 5%
3 | COc1cc(CNc2ccc(N3CCOCC3)c(C(=O)O)c2)cc(Br)c1OC [Compound A-25] | < 5%
4 | NC(=O)c1ccccc1/N=C/c1ccc2ccccc2c1 [Compound A-6] | > 5%
5 | NC(=O)c1ccccc1/N=C/c1cccc(O)c1O [Compound A-5] | 48.8%
6 | NC(=O)c1ccccc1/N=C/c1ccccc1[N+](=O)[O-] [Compound A-7] | 11.7%
7 | Cc1ccc(/C=N/c2ccccc2C(N)=O)o1 [Compound A-13] | 11.2%
8 | COc1cccc(/C=N/c2ccccc2C(N)=O)c1O [Compound A-4] | 20.9%
9 | CC(C)c1ccc(/C=N/c2ccccc2C(N)=O)cc1 [Compound A-14] | < 5%

same assay, conditions: Canis lupus familiaris, MDCK, 24 h, Table 4, 10 μM compound, then HGF, percentage like untreated controls (unstimulated cells = maximal effect, HGF only = nil)

Row | Structure (SMILES) | inhibition at 10 µM
10 | O=C(Nc1ccccn1)c1cccc([N+](=O)[O-])c1 [Compound B-8] | 45.3%

same assay, conditions: Canis lupus familiaris, MDCK, 24 h, Table 5, 10 μM compound, then HGF, percentage like untreated controls (unstimulated cells = maximal effect, HGF only = nil)

Row | Structure (SMILES) | inhibition at 10 µM
11 | COc1cc(C(=O)Nc2ccc(N3CCN(C)CC3)cc2)cc(OC)c1OC [Compound B-28] | 13.7%
12 | Cc1cc(C)cc(NS(=O)(=O)c2cccc([N+](=O)[O-])c2)c1 [Compound B-37] | 79.9%
13 | COc1cc(OC)cc(C(=O)Nc2ccc(N3CCCC3)cc2)c1 [Compound B-29] | 26.4%
14 | O=C(Nc1cccc([N+](=O)[O-])c1)c1ccc(-c2ccccc2)cc1 [Compound B-15] | 31.6%
15 | O=[N+]([O-])c1cccc(S(=O)(=O)Nc2ccc(I)cc2)c1 [Compound B-39] | 89.3%
16 | COc1cc(C(=O)Nc2ccc(N3CCCC3)cc2)cc(OC)c1OC [Compound B-25] | 94.9%
17 | CC(=O)c1cccc(NC(=O)c2ccc(-c3ccccc3)cc2)c1 [Compound B-16] | > 5%
18 | COc1cccc(C(=O)Nc2cccc(C(=O)c3ccccc3)c2)c1 [Compound B-40] | 93.1%
19 | Cc1cccc(NS(=O)(=O)c2cccc([N+](=O)[O-])c2)c1 [Compound B-36] | 79.2%
20 | COc1cc(C(=O)Nc2ccc(Nc3ccccc3)cc2)cc(OC)c1OC [Compound B-27] | 13.7%
21 | COc1cc(C(=O)Nc2ccc(N3CCCC3=O)cc2)cc(OC)c1OC [Compound B-24] | 93.2%

same assay, conditions: Canis lupus familiaris, MDCK, 24 h, Table 6, 10 μM compound, then HGF, percentage like untreated controls (unstimulated cells = maximal effect, HGF only = nil)

Row | Structure (SMILES) | inhibition at 10 µM
22 | CCCc1c(C(=O)OCC)[nH]c2c1C(=O)CC(c1cccs1)C2 (stereo not shown) [Compound C-9] | 15.3%
23 | Cc1c(C(=O)OCc2ccccc2)[nH]c2c1C(=O)CC(c1ccco1)C2 (stereo not shown) [Compound C-15] | < 5%
24 | CCOC(=O)c1[nH]c2c(c1C)C(=O)CC(c1ccccc1)C2 (stereo not shown) [Compound C-8] | 30.6%
25 | CCOC(=O)c1[nH]c2c(c1C)C(=O)CC(c1ccc(OC)cc1)C2 (stereo not shown) [Compound C-13] | < 5%
26 | CCOC(=O)c1[nH]c2c(c1C)C(=O)CC(c1cccs1)C2 (stereo not shown) [Compound C-2] | 49.7%
27 | Cc1c(C(=O)OC2CCCC2)[nH]c2c1C(=O)CC(c1cccs1)C2 (stereo not shown) [Compound C-10] | 8.8%
28 | Cc1ccc(COC(=O)c2[nH]c3c(c2C)C(=O)CC(c2cccs2)C3)cc1 (stereo not shown) [Compound C-6] | 48.4%
29 | Cc1c(C(=O)OC2CCCC2)[nH]c2c1C(=O)CC(c1ccco1)C2 (stereo not shown) [Compound C-14] | < 5%
30 | Cc1c(C(=O)OCc2ccccc2)[nH]c2c1C(=O)CC(c1cccs1)C2 (stereo not shown) [Compound C-5] | 41.6%

same assay, conditions: Table 1; 10 μM compound, then HGF, 24 hours; percentage like untreated controls (unstimulated cells = maximal effect, HGF only = nil)

Row | Structure (SMILES) | Assay Value
31 | COc1cc2c(c(OC)c1)C(c1cc(OC)ccc1OC)CC(=O)N2 (stereo not shown) [Compound 22] | 8.8%
32 | O=C1CC(c2cc(Br)ccc2F)c2cc3c(cc2N1)CCC3 (stereo not shown) [Compound 4] | 36.1%
33 | COc1cccc(C2CC(=O)Nc3cc4c(cc32)OCCO4)c1OC (stereo not shown) [Compound 23] | 69.3%
34 | O=C1CC(c2cc3c(cc2Br)OCO3)c2cc3c(cc2N1)CCC3 (stereo not shown) [Compound 27] | 87.2%
35 | O=C1CC(c2ccccc2C(F)(F)F)c2cc3c(cc2N1)CCC3 (stereo not shown) [Compound 28] | 95.2%
36 | O=C1CC(c2cc(F)ccc2F)c2cc3c(cc2N1)CCC3 (stereo not shown) [Compound 2] | 90.3%
37 | COc1ccc(OC)c(C2CC(=O)Nc3cc(OC)c(OC)c(OC)c32)c1 (stereo not shown) [Compound 30] | 52.3%
38 | O=C1CC(c2cc3c(cc2Cl)OCO3)c2cc3c(cc2N1)OCCO3 (stereo not shown) [Compound 20] | 5.9%

same assay, conditions: Table 2; 10 μM compound, then HGF, 24 hours; percentage like untreated controls (unstimulated cells = maximal effect, HGF only = nil)

Row | Structure (SMILES) | Assay Value
39 | Cc1cccc(C2CC(=O)Nc3cc4c(cc32)OCO4)c1 (stereo not shown) [Compound 85] | <5%
40 | CCOc1ccc(C2CC(=O)Nc3cc4c(cc32)OCO4)cc1 (stereo not shown) [Compound 81] | <5%
41 | COc1ccccc1C1CC(=O)Nc2cc(C)c(C)cc21 (stereo not shown) [Compound 34] | <5%
42 | COc1cc(C2CC(=O)Nc3cc4c(cc32)OCCO4)ccc1OCc1ccccc1 (stereo not shown) [Compound 70] | <5%
43 | Cc1ccc(C)c(C2CC(=O)Nc3cc4c(cc32)OCO4)c1 (stereo not shown) [Compound 83] | <5%
44 | COc1cc2c(cc1OC)C(c1cc(F)ccc1F)CC(=O)N2 (stereo not shown) [Compound 72] | <5%
45 | O=C1CC(c2cccc(F)c2F)c2cc3c(cc2N1)OCO3 (stereo not shown) [Compound 75] | <5%
46 | CCOc1c(Br)cc(C2CC(=O)Nc3cc(OC)c(OC)cc32)cc1OC (stereo not shown) [Compound 39] | <5%
47 | O=C1CC(c2cccc(Cl)c2)c2cc3c(cc2N1)CCC3 (stereo not shown) [Compound 96] | <5%
48 | CC(C)Oc1ccccc1C1CC(=O)Nc2cc3c(cc21)OCCO3 (stereo not shown) [Compound 50] | <5%
49 | CCOc1ccccc1C1CC(=O)Nc2cc(C)c(C)cc21 (stereo not shown) [Compound 33] | <5%
50 | O=C1CC(c2ccc3c(c2)OCO3)c2cc3c(cc2N1)OCO3 (stereo not shown) [Compound 88] | <5%
51 | COc1cc2c(cc1OC)C(c1ccccc1C)CC(=O)N2 (stereo not shown) [Compound 40] | <5%
52 | Cc1ccc(C2CC(=O)Nc3cc4c(cc32)OCO4)cc1Br (stereo not shown) [Compound 89] | <5%
53 | O=C1CC(c2ccccc2Br)c2cc3c(cc2N1)OCCO3 (stereo not shown) [Compound 36] | <5%
54 | COc1ccc(C2CC(=O)Nc3cc4c(cc32)OCO4)cc1Cl (stereo not shown) [Compound 84] | <5%
55 | COc1cc2c(cc1OC)C(c1cc(Br)ccc1OC)CC(=O)N2 (stereo not shown) [Compound 66] | <5%
56 | CCCCOc1ccccc1C1CC(=O)Nc2cc(OC)c(OC)cc21 (stereo not shown) [Compound 47] | <5%
57 | COc1cc2c(cc1OC)C(c1ccc(Cl)cc1)CC(=O)N2 (stereo not shown) [Compound 55] | <5%
58 | COc1cc2c(cc1OC)C(c1cccc(Br)c1)CC(=O)N2 (stereo not shown) [Compound 59] | <5%
59 | O=C1CC(c2ccc([N+](=O)[O-])cc2)c2cc3c(cc2N1)OCCO3 (stereo not shown) [Compound 53] | <5%
60 | O=C1CC(c2ccc(F)cc2)c2cc3c(cc2N1)OCCO3 (stereo not shown) [Compound 62] | <5%
61 | O=C1CC(c2ccccc2[N+](=O)[O-])c2cc3c(cc2N1)OCCO3 (stereo not shown) [Compound 67] | <5%
62 | COc1c(O)cccc1C1CC(=O)Nc2cc3c(cc21)OCO3 (stereo not shown) [Compound 90] | <5%
63 | O=C1CC(c2ccc(Cl)c(Cl)c2)c2cc3c(cc2N1)OCCO3 (stereo not shown) [Compound 51] | <5%
64 | O=C1CC(c2ccc([N+](=O)[O-])cc2)c2cc3c(cc2N1)CCC3 (stereo not shown) [Compound 98] | <5%

same assay, conditions: Table 3; 10 μM compound, then HGF, 24 hours; percentage like untreated controls (unstimulated cells = maximal effect, HGF only = nil)

Row | Structure (SMILES) | Assay Value
65 | NC(=O)c1ccccc1/N=C/c1ccc2ccccc2c1 [Compound A-16] | <5%
66 | C#CCOc1c(Br)cc(CNc2ccc(Cl)c(Cl)c2)cc1OC [Compound A-24] | 16.3%
67 | COc1cc(CNc2ccc(C)c(Cl)c2)cc(I)c1OC [Compound A-20] | 81.9%
68 | COc1cc(CNc2ccc(C)c(Cl)c2)cc(Cl)c1OC [Compound A-21] | 57.5%

same assay, conditions: Table 5; 10 μM compound, then HGF, 24 hours; percentage like untreated controls (unstimulated cells = maximal effect, HGF only = nil)

Row | Structure (SMILES) | Assay Value
69 | Cc1cc(NC(=O)c2cccc([N+](=O)[O-])c2)ccc1O [Compound B-14] | 34.6%

same assay, conditions: Table 6; 10 μM compound, then HGF, 24 hours; percentage like untreated controls (unstimulated cells = maximal effect, HGF only = nil)

Row | Structure (SMILES) | Assay Value
70 | Cc1c(C(=O)OC2CCCC2C)[nH]c2c1C(=O)CC(c1cccs1)C2 (stereo not shown) [Compound C-12] | <5%
